Source: US4256746A, “Dechloromaytansinoids, their pharmaceutical compositions and method of use” (priority 1978, dated 1981)
Values after ≈ are worked out from the molar mass of the structure shown. Where two headings read alike, the source gives them in different places.

Assays:
Tetrahymena pyriformis W = assay: Antiprotozoal activity, growth inhibition by the serial dilution method; assay type: cell-based
Protocol: Antiprotozoal activity of compound (I) was assayed with Tetrahymena pyriformis W as the test organism and a medium composed of 20 g tryptose-peptone (Difco Co.), 1 g yeast extract, 2 g glucose, 1000 ml distilled water, 10 ml 1 M phosphate buffer (pH 7.0) as the assay medium. The microorganism was incubated at 28° C. for 44 to 48 hours and the growth inhibitory activity of compound (I) was assayed by the serial dilution method.

leukemia P-388 = assay: Antitumor activity, life span prolongation of mice transplanted intraperitoneally with leukemia P-388 tumor cells; assay type: in vivo; settings: i.p. once daily for 9 consecutive days
Protocol: (§1) Therapeutic tests were carried out in mice according to NCI-protocols 1,200 and 1,300, Cancer Chemother, Reports, Part 3, 1972, Vol. 3, No. 2, in which leukemia P-388 and melanoma B-16 tumor cells had been intraperitoneally transplanted, compound (I) being administered intraperitoneally once daily for 9 consecutive days.

melanoma B-16 = assay: Antitumor activity, life span prolongation of mice transplanted intraperitoneally with melanoma B-16 tumor cells; assay type: in vivo; settings: i.p. once daily for 9 consecutive days
Protocol: as §1

[1] = Tetrahymena pyriformis, pH 7, read-out: Antiprotozoal activity MIC (minimal inhibitory concentration)

SMILES | MIC (Tetrahymena pyriformis W; [1]) [µg/mL] | MIC (Tetrahymena pyriformis W; Tetrahymena pyriformis W, 28° C., 44 to 48 hours, serial dilution method, pH 7.0, read-out: Antiprotozoal activity MIC (minimal inhibitory concentration)) [µg/mL] | Antitumor activities P-388 (T/C %) (leukemia P-388; 50 μg/kg) | Antitumor activities P-388 (T/C %) (leukemia P-388; 100 μg/kg) | Antitumor activities P-388 (T/C %) (leukemia P-388; 200 μg/kg) | Antitumor activities P-388 (T/C %) (leukemia P-388; 400 μg/kg) | Antitumor activities B-16 (T/C %) (melanoma B-16; 100 μg/kg) | Antitumor activities B-16 (T/C %) (melanoma B-16; 200 μg/kg) | Antitumor activities B-16 (T/C %) (melanoma B-16; 400 μg/kg) | Antitumor activities B-16 (T/C %) (melanoma B-16; 800 μg/kg)
COc1cc2cc(c1)N(C)C(=O)CC(OC(=O)C1CCCCC1)C1(C)OC1C(C)C1CC(O)(NC(=O)O1)C(OC)C=CC=C(C)C2 (stereo not shown) [dechloromaytansinol 3-cyclohexanecarboxylate] | 4 (≈ 6.24 µM) | – | – | – | – | – | – | – | – | –
COc1cc2cc(c1)N(C)C(=O)CC(OC(=O)Cc1ccccc1)C1(C)OC1C(C)C1CC(O)(NC(=O)O1)C(OC)C=CC=C(C)C2 (stereo not shown) [Dechloromaytansinol 3-phenylacetate, dechloromaytansinol 3-phenylacetate] | – | 2 (≈ 3.08 µM) | – | – | – | – | – | – | – | –
COc1cc2cc(c1)N(C)C(=O)CC(OC(=O)CCl)C1(C)OC1C(C)C1CC(O)(NC(=O)O1)C(OC)C=CC=C(C)C2 (stereo not shown) [Dechloromaytansinol 3-chloroacetate, dechloromaytansinol 3-chloroacetate] | ≥ 4 | – | – | – | – | – | – | – | – | –
COc1cc2cc(c1)N(C)C(=O)CC(OC(=O)[C@H](C)N(C)C(C)=O)C1(C)OC1C(C)C1CC(O)(NC(=O)O1)C(OC)C=CC=C(C)C2 (stereo partly shown) [Dechloromaytansine, dechloromaytansine] | – | – | 158 | 165 | 175 | 189 | 171 | 152 | 179 | 190
COc1cc2cc(c1)N(C)C(=O)CC(OC(=O)C(C)C)C1(C)OC1C(C)C1CC(O)(NC(=O)O1)C(OC)C=CC=C(C)C2 (stereo not shown) [Dechloromaytansinol 3-isobutyrate, dechloromaytansinol 3-isobutyrate] | – | – | 168 | 189 | 193 | 224 | 150 | 152 | 174 | 214
